Laboratory results reported in US20260027068A1, “METHODS OF ADM[…]-KETAMINE” (Perception Neuroscience, Inc., priority 2022, published 2026).

Assay: Temperature (vital signs)
Details: 30 mg
Description: The Investigational Medicinal Product (IMP) R(−)-ketamine hydrochloride in sterile water for intravenous injection was investigated as an […] treatment of TRD. The International Union of Pure and Applied Chemistry (IUPAC) name is of the IMP is (2R)-2-(2-chlorophenyl)-2-(methylamino)cyclohexan-1-one. Subjects received the solution at either 30 mg or 60 mg dose, or a placebo. The IMP or placebo was administered on Day 1 as a single IV infusion via an electronic infusion pump over 40 minutes. The duration of study participation for each subject was up to 29 days including a screening period, a 3-day in-clinic visit, and 2 follow-up visits. 101 subjects were enrolled in approximately 20 study centers in the EU and the US.
Tympanic or temporal temperature, heart rate, blood pressure (SBP/DBP), respiratory rate, and SpO2 were assessed. Blood pressure and pulse measurements will be assessed with a completely automated device while the subject is supine or semi-supine. Manual techniques will be used only if an automated device is not available. Blood pressure and pulse measurements should be preceded by at least 5 minutes of rest for the subject in a quiet setting without distractions (e.g., television, cell phones). An abnormal blood pressure value at screening may be repeated once after 5 minutes of relaxation to determine the subject's eligibility. Blood pressure was recorded using the same arm and position (supine or semi-supine) throughout the study, where possible. Vital signs (to be taken before blood collection for laboratory tests) consisted of 1 pulse and 3 blood pressure measurements (3 consecutive blood pressure readings will be recorded at intervals of at least 1 minute). The average of the 3 blood pressure readings was recorded in the CRF. A pulse oximeter was used to measure peripheral capillary oxygen saturation (SpO2) continuously from pre-dose until 4-hours post-dose. A pulse oximeter was clipped onto the finger or foot of the subject, and light will be sent through the finger or foot and measured on the other side.
In these tables, baseline value is defined as the last non-missing value prior to study drug administration.

SMILES: CN[C@@]1(c2ccccc2Cl)CCCCC1=O.Cl [R(−)-ketamine, (2R)-2-(2-chlorophenyl)-2-(methylamino)cyclohexan-1-one]
- Temperature, Max (Day 1, 15 minutes): 37.2 °C
- Temperature, Mean (Day 1, 15 minutes): 36.57 °C
- Temperature, Median (Day 1, 15 minutes): 36.50 °C
- Temperature, Min (Day 1, 15 minutes): 36.4 °C
- Temperature, Max (Day 1, 40 minutes): 37.2 °C
- Temperature, Mean (Day 1, 40 minutes): 36.58 °C
- Temperature, Median (Day 1, 40 minutes): 36.60 °C
- Temperature, Min (Day 1, 40 minutes): 36.2 °C
- Temperature, Max (Day 1, 60 minutes): 37.2 °C
- Temperature, Mean (Day 1, 60 minutes): 36.57 °C
- Temperature, Median (Day 1, 60 minutes): 36.50 °C
- Temperature, Min (Day 1, 60 minutes): 36.3 °C
- Temperature, Max (Day 1, 2 hours): 37.2 °C
- Temperature, Mean (Day 1, 2 hours): 36.62 °C
- Temperature, Median (Day 1, 2 hours): 36.60 °C
- Temperature, Min (Day 1, 2 hours): 36.4 °C
- Temperature, Max (Day 1, 4 hours): 37.1 °C
- Temperature, Mean (Day 1, 4 hours): 36.57 °C
- Temperature, Median (Day 1, 4 hours): 36.60 °C
- Temperature, Min (Day 1, 4 hours): 36.3 °C
- Temperature, Max (Day 1, 6 hours): 37.2 °C
- Temperature, Mean (Day 1, 6 hours): 36.63 °C
- Temperature, Median (Day 1, 6 hours): 36.60 °C
- Temperature, Min (Day 1, 6 hours): 36.3 °C
- Temperature, Max (Day 2 - Discharge): 37.1 °C
- Temperature, Mean (Day 2 - Discharge): 36.59 °C
- Temperature, Median (Day 2 - Discharge): 36.60 °C
- Temperature, Min (Day 2 - Discharge): 35.9 °C
- Temperature, Max (Day 8): 36.8 °C
- Temperature, Mean (Day 8): 36.50 °C
- Temperature, Median (Day 8): 36.50 °C
- Temperature, Min (Day 8): 36.1 °C
- Temperature, Max (Day 15): 37.1 °C
- Temperature, Mean (Day 15): 36.60 °C
- Temperature, Median (Day 15): 36.60 °C
- Temperature, Min (Day 15): 36.2 °C
- Temperature, Change from Baseline, Max (to Day 1, 15 minutes): 0.4 °C
- Temperature, Change from Baseline, Mean (to Day 1, 15 minutes): 0.05 °C
- Temperature, Change from Baseline, Median (to Day 1, 15 minutes): 0.10 °C
- Temperature, Change from Baseline, Min (to Day 1, 15 minutes): −0.3 °C
- Temperature, Change from Baseline, Max (to Day 1, 40 minutes): 0.5 °C
- Temperature, Change from Baseline, Mean (to Day 1, 40 minutes): 0.05 °C
- Temperature, Change from Baseline, Median (to Day 1, 40 minutes): 0.00 °C
- Temperature, Change from Baseline, Min (to Day 1, 40 minutes): −0.2 °C
- Temperature, Change from Baseline, Max (to Day 1, 60 minutes): 0.5 °C
- Temperature, Change from Baseline, Mean (to Day 1, 60 minutes): 0.05 °C
- Temperature, Change from Baseline, Median (to Day 1, 60 minutes): 0.00 °C
- Temperature, Change from Baseline, Min (to Day 1, 60 minutes): −0.3 °C
- Temperature, Change from Baseline, Max (to Day 1, 2 hours): 0.7 °C
- Temperature, Change from Baseline, Mean (to Day 1, 2 hours): 0.08 °C
- Temperature, Change from Baseline, Median (to Day 1, 2 hours): 0.10 °C
- Temperature, Change from Baseline, Min (to Day 1, 2 hours): −0.2 °C
- Temperature, Change from Baseline, Max (to Day 1, 4 hours): 0.5 °C
- Temperature, Change from Baseline, Mean (to Day 1, 4 hours): 0.03 °C
- Temperature, Change from Baseline, Median (to Day 1, 4 hours): 0.00 °C
- Temperature, Change from Baseline, Min (to Day 1, 4 hours): −0.4 °C
- Temperature, Change from Baseline, Max (to Day 1, 6 hours): 0.9 °C
- Temperature, Change from Baseline, Mean (to Day 1, 6 hours): 0.09 °C
- Temperature, Change from Baseline, Median (to Day 1, 6 hours): 0.10 °C
- Temperature, Change from Baseline, Min (to Day 1, 6 hours): −0.4 °C
- Temperature, Change from Baseline, Max (to Day 2 - Discharge): 0.5 °C
- Temperature, Change from Baseline, Mean (to Day 2 - Discharge): 0.05 °C
- Temperature, Change from Baseline, Median (to Day 2 - Discharge): 0.00 °C
- Temperature, Change from Baseline, Min (to Day 2 - Discharge): −0.3 °C
- Temperature, Change from Baseline, Max (to Day 8): 0.6 °C
- Temperature, Change from Baseline, Mean (to Day 8): −0.03 °C
- Temperature, Change from Baseline, Median (to Day 8): 0.00 °C
- Temperature, Change from Baseline, Min (to Day 8): −0.7 °C
- Temperature, Change from Baseline, Max (to Day 15): 0.9 °C
- Temperature, Change from Baseline, Mean (to Day 15): 0.05 °C
- Temperature, Change from Baseline, Median (to Day 15): 0.00 °C
- Temperature, Change from Baseline, Min (to Day 15): −0.4 °C
